Data published in patent US10888549B2, “Pharmaceutical agents targeting cancer stem cells” (THE JOHNS HOPKINS UNIVERSITY, priority 2016, dated 2021).

How the values were obtained:
SOX2 = SOX2 expression by western blotting / flow cytometry; assay type: cell-based, human
Protocol: (§1) Whole cell lysates were extracted using RIPA buffer (Thermo Scientific) supplemented with 10 μL/mL Halt™ Protease Inhibitor Cocktail Kit (Life Technologies) and 30 μL/mL Halt™ Phosphatase Inhibitor Cocktail Kit (Life Technologies). The protein concentrations were determined using a Pierce™ BCA Protein Assay Kit (Life Technologies), and the protein were separated on NuPAGE® 4-12% Bis-Tris Gel (Life Technologies) according to the manufacturer's protocol. COX2 (D5H5), NANOG (D73G4), OCT4 (D7O5Z), CD133 (A3G6K), Snail (C15D3), ZEB1 (D80D3), Vimentin (D21H3), CDH2 (D4R1H), CDH1 (24E10), p-EGFR (D7A5), EGFR (D38B1), p-AKT (D9E), AKT (cat #, 9272), p-ERK (D13.14.4E), ERK (137F5), p-YAP1 (D9W2I), p-Src (cat #, 2101), Src (36D10), DNMT1 (D63A6), DNMT3A (D23G1), and DNMT3B (D7O7O) antibodies were obtained from Cell Signaling Technology (Danvers, Mass., USA), except for SOX2 (EPR3131; Abcam, Cambridge, USA), YAP1 (ab52771; Abcam), CD24 (cat #, AF5247-SP; R&D Systems, Minneapolis USA) and β-actin (A2228; Sigma-Aldrich). Secondary horseradish peroxidase (HRP)-conjugated antibodies were obtained from Cell Signaling Technology, and chemiluminescent detection of HRP-labeled antibodies was performed using Amersham ECL Prime Western Blotting Detection Reagent (GE Healthcare, Piscataway, USA). As loading control, β-actin was used.
For extracellular staining, cells (1×10^6/100 μL stain buffer) were incubated with PE-Vio770-conjugated anti-human CD133 (293C3; Miltenyi Biotec, Auburn, USA) or PE-conjugated anti-human CD24 antibody (cat #, 560991; BD Biosciences) for 30 min at 4° C. in dark. PE-Vio770-conjugated Isotype (cat #, 130-098-563; Miltenyi Biotec) and PE-conjugated IgG2a, κ Isotype (cat #, 555574; BD Biosciences) were used as control for CD133 and CD24 staining, respectively. Staining for intracellular SOX2 was carried out using the BD Cytofix/Cytoperm Fixation/Permeabilization Kit (BD Biosciences) according to manufacturer's protocol. The cells were incubated with Alexa Fluor 647-conjugated anti-SOX2 antibody (cat #, 560302; BD Biosciences) for 40 min at 4° C. in dark. Alexa Fluor 647-conjugated anti-IgG2a, κ Isotype (cat #, 558053; BD Biosciences) was used as control. Data were acquired on a BD FACSCalibur flow cytometer (BD Biosciences) using BD CellQuest Pro software (BD Biosciences) and analyzed with FlowJo software v10.1 (Tree Star, Ashland, USA).

[1] = Body weight of treated mice; assay type: in vivo; settings: mouse, in vivo
Protocol: For celecoxib and/or VP treatment, celecoxib (5 mg/kg) was administered via intraperitoneal (i.p.) injection once a day (17), and VP (50 mg/kg) was administered via i.p. every other day (18). EP4 antagonist ONO-AE3-208 (10 mg/kg) was administered via i.p. once a day (19). Control was applied with same volume (100 μL per injection) of 10% dimethyl sulphoxide in […] (Sigma-Aldrich). For GEM and CDDP (GC) treatment (i.p.), CDDP (6 mg/kg) was only applied after the first GEM (60 mg/kg) treatment on day 2, followed by three consecutive treatments of GEM on day 5, 8 and 11 (17). The next cycle was started on day 18, and the treatment was continued until tumor reached 2 cm in diameter. For erlotinib treatment, the mice were treated once a day, 6 days per week, by oral gavage with erlotinib (100 mg/kg) or control (PBS containing 0.5% methyl cellulose (Sigma-Aldrich) and 0.1% TWEEN 80) (20). Tumor size was measured at least every three days. […] To establish xenograft model with acquired resistance to erlotinib, erlotinib sensitive 5637 cells were injected subcutaneously into the both flanks of 4-5 week-old NSG mice, and the tumors were consecutively passaged from NSG mice treated with erlotinib and celecoxib until the development of refractory tumors. […]

COX2 = COX2 expression by western blotting; assay type: cell-based, human; settings: agent alone; bladder cancer cells
Protocol: Whole cell lysates were extracted using RIPA buffer (Thermo Scientific) supplemented with 10 μL/mL Halt™ Protease Inhibitor Cocktail Kit (Life Technologies) and 30 μL/mL Halt™ Phosphatase Inhibitor Cocktail Kit (Life Technologies). […] Secondary horseradish peroxidase (HRP)-conjugated antibodies were obtained from Cell Signaling Technology, and chemiluminescent detection of HRP-labeled antibodies was performed using Amersham ECL Prime Western Blotting Detection Reagent (GE Healthcare, Piscataway, USA). As loading control, β-actin was used.

let-7 = let-7 expression by Q-RT-PCR; assay type: cell-based, human; settings: parental or spheroid bladder cancer cells
Protocol: Total RNA from cell lines was isolated using the RNeasy Plus Mini kit (Qiagen, Valencia, USA) according to the manufacturer's protocol. Total RNA extraction from bladder tissue was performed with the QIAzol Lysis Reagent (Qiagen) followed by phenol extraction and ethanol precipitation. Total RNA was eluted in DEPC treated water and stored at -80° C. Total RNA extraction from urine was performed using the […] Isolation Kit (Ambion, Austin, USA). These total RNA were converted to cDNA using the SuperScript III First-Strand Synthesis System (Life technologies, Carlsbad, USA), which was then used as a template for Q-RT-PCR. Q-RT-PCR was performed using the Fast SYBR Green Master Mix (Thermo Fisher Scientific, Waltham, USA) on a 7900HT Fast Real-Time PCR System (Life technologies) in triplicate. Micro RNA (miRNA) extraction was performed using the […] Isolation Kit, and was reverse transcribed using TaqMan reverse transcription kit (Applied Biosystems, Foster City, USA) and miRNA-specific RT primers provided with TaqMan microRNA assays (Applied Biosystems). Q-RT-PCR for miRNAs was performed using the TaqMan Universal PCR Master Mix according to the manufacturer's protocol. SDS software (Applied Biosystems) was used to determine cycle threshold (Ct) values. Expression level was quantified relative to β-actin for mRNA and RNU6B for miRNA using the 2-ΔΔCt method (12).

MIRLET7BHG promoter = assay: Bisulfite sequencing of let-7 host gene promoter; assay type: cell-based, human; settings: bladder cancer cells
Protocol: Cell pellets were digested with 1% sodium dodecyl sulfate and 50 μg/mL proteinase K (Roche, Nutley, USA) at 48° C. overnight. Isolation of genomic DNA from cell lines was performed with the phenol-chloroform extraction protocol followed by ethanol precipitation. Bisulfite treatment was conducted using an EpiTect Bisulfite Kit (QIAGEN, Valencia, USA), and was subsequently amplified via PCR using primers as shown in the following table. PCR products were purified using the QIAquick Gel Extraction kit (Qiagen), and sequenced by Genewiz DNA sequencing service (Genewiz, South Plainfield, USA). The data were analyzed using the Sequence Scanner v1.0 software (Life technologies). A methylation frequency of ≥50% of total CpG sites within the amplified region was considered “methylation-positive”. For demethylation, cells (1×10^6/T-75 flask) were treated with […] of the demethylating agent 5-Aza-dC (Sigma) dissolved in 50% acetic acid or were mock-treated with phosphate buffered saline (PBS) including the same amount of acetic acid every 24 hours for 5 days. When combined with the histone deacetylase inhibitor TSA (Sigma), 300 nmol/L TSA was added to the medium for the final 24 hours.

DNMT 1 and 3A = assay: Western blotting of DNMTs; assay type: cell-based, human
Protocol: as §1

panel of miRNAs = assay: Expression of a panel of miRNAs in BFTC 905 cells; assay type: cell-based, human
Protocol: Total RNA from cell lines was isolated using the RNeasy Plus Mini kit (Qiagen, Valencia, USA) according to the manufacturer's protocol. Total RNA extraction from bladder tissue was performed with the QIAzol Lysis Reagent (Qiagen) followed by phenol extraction and ethanol precipitation. Total RNA was eluted in DEPC treated water and stored at −80° C. Total RNA extraction from urine was performed using the MirVana miRNA Isolation Kit (Ambion, Austin, USA). These total RNA were converted to cDNA using the SuperScript III First-Strand Synthesis System (Life technologies, Carlsbad, USA), which was then used as a template for Q-RT-PCR. Q-RT-PCR was performed using the Fast SYBR Green Master Mix (Thermo Fisher Scientific, Waltham, USA) on a 7900HT Fast Real-Time PCR System (Life technologies) in triplicate. Micro RNA (miRNA) extraction was performed using the MirVana miRNA Isolation Kit, and was reverse transcribed using TaqMan reverse transcription kit (Applied Biosystems, Foster City, USA) and miRNA-specific RT primers provided with TaqMan microRNA assays (Applied Biosystems). Q-RT-PCR for miRNAs was performed using the TaqMan Universal PCR Master Mix according to the manufacturer's protocol. SDS software (Applied Biosystems) was used to determine cycle threshold (Ct) values. Expression level was quantified relative to β-actin for mRNA and RNU6B for miRNA using the 2-ΔΔCt method (12).

urothelial CSCs = assay: Sphere formation assay (CSC properties); assay type: cell-based, human; settings: for sphere formation / sphere-forming ability: agent alone, bladder cancer cells
Protocol: Sphere formation was induced by culturing cells (2×10^4/well) in DMEM/Ham's F12 50/50 Mix (Mediatech) supplemented with B-27 (Life Technologies), 20 ng/mL FGF-basic (Peprotech), 20 ng/mL EGF (Peprotech). Cell culture was performed in ultra-low attachment 6 well plates (Corning, Lowell, USA) for 10 days. The medium was replaced every other day. Sphere formation was evaluated using the inverted phase-contrast microscope, and single sphere with a diameter larger than 100 μm was counted using NIS-Elements Microscope Imaging Software. To redifferentiate spheres, spheres were plated in standard growth medium with 10% FBS in dishes supporting cell attachment, and incubated for 7 days. For self-renewal assay, primary spheres were collected by gentle centrifugation (5 min at 400×g), dissociated with Stempro Accutase Cell Dissociation Reagent (Life Technologies), and mechanically disrupted with a pipette. The cell suspension was sieved through 40 μm cell strainer cap filter to achieve a single-cell suspension, and then equal numbers of alive cells were plated in ultralow attachment plates to generate the second spheres. Again, spheres were counted on day 14 and digested to generate the third Spheres. All the experiments were performed in triplicate and repeated at least three times.

YAP1 = YAP1 expression by western blotting; assay type: cell-based, human
Protocol: as §1

[2] = agent alone, bladder cancer cells
[3] = PGE2 added to celecoxib-treated cells

C=Cc1c(C)c2cc3nc(cc4[nH]c(cc5nc(cc1[nH]2)C(C)=C5CCC(=O)O)c(CCC(=O)OC)c4C)[C@@]1(C)C3=CC=C(C(=O)OC)[C@H]1C(=O)OC [VP, 3-[(23S,24R)-14-ethenyl-5-(3-methoxy-3-oxopropyl)-22,23-bis(methoxycarbonyl)-4,10,15,24-tetramethyl-25,26,27,28-tetraazahexacyclo[16.6.1.1^3,6.1^8,11.1^13,16.0^19,24]octacosa-1,3,5,7,9,11(27),12,14,16,18(25),19,21-dodecaen-9-yl]propanoic acid]
SOX2 expression (SOX2; [2]): reduced
body weight loss of mice [1]: did not observe body weight loss
COX2 expression (COX2): induced

CCCCC[C@H](O)/C=C/[C@H]1[C@H](O)CC(=O)[C@@H]1C/C=C\CCCC(=O)O [PGE2, Prostaglandin E2]
SOX2 expression (SOX2; [3]): restored
let-7 expression (let-7): reduced
promoter methylation of the let-7 host gene (MIRLET7BHG promoter): Promoter methylation of the let-7 host gene was observed
DNMT 1 and 3A expression (DNMT 1 and 3A): upregulated
expression of several miRNAs (panel of miRNAs): reduced
sphere-forming ability (urothelial CSCs; [3]): restored

CC(C(=O)Nc1cc(C#N)ccc1CCCC(=O)O)c1ccc(F)c2ccccc12 (centres unmarked) [EP4-specific antagonist, ONO-AE3-208]
SOX2 expression (SOX2; [2]): dramatic reduction
sphere formation / sphere-forming ability (urothelial CSCs): dramatic reduction

CC(C)(C)n1nc(-c2ccc(Cl)cc2)c2c(N)ncnc21 [Src inhibitor, PP2]
YAP1 expression (YAP1; Src inhibitor added to COX2 inhibitor-treated cells): downregulated

N.N.[Cl][Pt][Cl] [cisplatin, Cisplatin]
YAP1 expression (YAP1; [2]): overexpression
SOX2 expression (SOX2; [2]): overexpression
COX2 expression (COX2): overexpression
sphere formation / sphere-forming ability (urothelial CSCs): increased

CCc1cccc2c3c([nH]c12)C(CC)(CC(=O)O)OCC3 (centres unmarked) [etodolac, Etodolac]
SOX2 expression (SOX2; [2]): dramatic reduction
sphere formation / sphere-forming ability (urothelial CSCs): dramatic reduction

Nc1ncn([C@H]2C[C@H](O)[C@@H](CO)O2)c(=O)n1 [5-Aza-dC, 5-Aza-2′-deoxycytidine]
let-7 expression (let-7): restoration
promoter methylation of the let-7 host gene (MIRLET7BHG promoter): demethylated
